Experimental data published in EP4721737A1, “USE OF PHARMACEUTICAL COMPOSITION COMPRISING COMPOUND HAVING BIS(AZANYLYLIDENE) SULFONYL STRUCTURE FOR TREATING ANEMIA-RELATED DISEASES” (Scinnohub Pharmaceutical Co., Ltd., priority 2023, dated 2024).

How the values were obtained:
recombinant human PKR = recombinant human PKR (Homo sapiens, UniProt P30613); test: pyruvate kinase (PKR) activity test, activation of recombinant enzyme (fluorescence kit); assay type: biochemical
Description: To test the activation effect of the compound of the present disclosure on recombinant human PKR.
3.1 A recombinant human PKR enzyme solution was prepared at a concentration of 60 ng/well (a 20 µL reaction system), and 5 µL of the solution was added into each well of a black transparent bottom 384-well plate.
3.2 Compound solutions were prepared at different concentrations, with the final concentrations of 1000/300/100 nM (containing 1% DMSO). Each 5 µL of the compound solution was added into the plate in step 3.1 and mixed well. The plate was incubated at room temperature for 10 min.
3.3 A reaction system was prepared according to the instructions of a kit (as shown in the table below), and 10 µL of the reaction system was added into each well of the 384-well plate, and mixed uniformly with the solution in step 3.2.
3.4 The 384-well plate was placed on a microplate reader to detect the fluorescence value at 540/590 nm, where the value was read every 2 minutes and the detection was conducted continuously for 1 hour.
3.5 The Slope value within the detection time was calculated, and the 1% DMSO well was used as a control well to calculate a compound activation rate. Activation rate % = (Slopeofcompoundwell/Slopeofcontrolwell) × 100% [formula]
With the log value of the compound concentration as the X axis and the percentage activation rate as the Y axis, a dose-effect curve was fitted with the log(agonist) vs. response-variable slope of the analysis software GraphPad Prism 5, and the AC50 value of the activity of each compound against PKR was obtained. Y = min + (max−min)/(1+10^(∧)((LogAC50−X)×Hillslope)). [formula]

[1] = molecular target: T1, PKR in ex vivo red blood cells from healthy individuals (Homo sapiens, UniProt P30613); test: ex vivo pyruvate kinase (PKR) activity experiment, red blood cells of healthy individuals; assay type: cell-based; conditions: 3 hours co-cultivation
T1 construct: endogenous in cells; host or cells: human red blood cells isolated from fresh peripheral blood of healthy individuals
T1 sequence (P30613 whole entry): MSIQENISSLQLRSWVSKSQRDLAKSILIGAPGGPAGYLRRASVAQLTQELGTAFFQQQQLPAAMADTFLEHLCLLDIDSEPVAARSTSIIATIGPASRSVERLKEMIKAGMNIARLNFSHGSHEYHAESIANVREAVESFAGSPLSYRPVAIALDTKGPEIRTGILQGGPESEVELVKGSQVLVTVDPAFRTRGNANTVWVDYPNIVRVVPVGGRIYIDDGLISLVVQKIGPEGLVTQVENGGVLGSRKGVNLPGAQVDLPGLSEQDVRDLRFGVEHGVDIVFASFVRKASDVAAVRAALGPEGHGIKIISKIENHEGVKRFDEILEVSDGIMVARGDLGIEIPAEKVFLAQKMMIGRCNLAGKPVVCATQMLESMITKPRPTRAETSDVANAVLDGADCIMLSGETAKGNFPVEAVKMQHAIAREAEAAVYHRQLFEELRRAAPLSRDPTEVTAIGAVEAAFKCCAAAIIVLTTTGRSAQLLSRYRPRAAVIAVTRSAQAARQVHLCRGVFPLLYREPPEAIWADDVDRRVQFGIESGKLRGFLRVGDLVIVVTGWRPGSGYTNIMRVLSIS
How it was run: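 Washed, Percoll-purified human RBCs at 1 × 10^7 cells/mL were exposed to compound (final 1–3000 nM, 1% DMSO) for 3 h at 37°C, then lysed. PKR activity in lysate was followed kinetically by fluorescence at 540/590 nm over 1 h. Slope versus 1% DMSO control gave % activation; AC50 from variable-slope fit.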

[2] = Phase II clinical studies, at week 12; cited from earlier work

Sequence of recombinant human PKR (P30613 whole entry): as above

AC50 (recombinant human PKR) [nM]	AC50 [1] [nM]	SMILES	average increase in HGB [2] [g/dL]	patients achieved an increase in HGB of 1.0 g/dL [2] [%]
< 100	< 100	[2H]C([2H])([2H])Oc1ccc(S(=O)(=O)N2CC(=C3CN(C(=O)[C@H](CO)c4ccccc4)C3)C2)nc1 [Compound 91, (S)-3-hydroxy-1-(1'-((5-(methoxy-d3)pyridin-2-yl)sulfonyl)-1',4'-dihydro-2H,2'H-[3,3'-diazetidinylidene]-1(4H)-yl)-2-phenylpropan-1-one]	–	–
–	–	O=C(c1ccc(NS(=O)(=O)c2cccc3cccnc23)cc1)N1CCN(CC2CC2)CC1 [Mitapivat]	1.34	92.3
